From patent US6664241B2, “Water-soluble amide derivatives of polyene macrolides and preparation and uses thereof” (Micrologix Biotech Inc., priority 2000, dated 2003)
Converted amounts (≈) assume the structure as drawn.

What was measured:
[1] = system: C. albicans; experiment: Minimum Inhibitory Concentrations (MICs) against C. albicans, NCCLS M27-A broth dilution; assay type: cell-based; conditions: Candida albicans, read-out: MIC
Method: For each compound synthesized, Minimum Inhibitory Concentrations (MICs) against C. albicans were determined as described in Reference Method for Broth Dilution Antifungal Susceptibility Testing of Yeasts, Approved Standard, NCCLS document M27-A (ISBN 1-56238-328-0), NCCLS, 940 West Valley Road, Suite 1400, Wayne, Pa. 19087, 1997.

[2] = Maximum non-lethal dose (NLD), single intravenous dose in mice; assay type: in vivo, Swiss-Webster male mice; conditions: test compounds as aspartate salts in 5% mannitol, AmB as FUNGIZONE
Method: (§1) A variety of the compounds synthesized as described in Section 5, supra, were tested in various in vivo assays, as described below. The results of the various assays are provided in TABLE 3, presented at the end of this section. In all of the in vivo assays described, the test compounds, in the form of the aspartate salts, were formulated in an aqueous vehicle (5% mannitol in sterile water; OSMITROL, Baxter Healthcare, Deerfield, Ill.), followed by appropriate dilutions. The formulations were prepared fresh before dosing.
(§2) AmB and AME were also tested for comparison. For AmB, the commercially available FUNGIZONE (Bristol-Meyers Squibb Co.) was used. Reported values are based upon the weight of the AmB active ingredient, not on the basis of the weight of the FUNGIZONE powder. AME was formulated in OSMITROL as described for the test compounds.
Maximum non-lethal dose (NLD) data were obtained for selected compounds. A single intravenous dose was administered to each of four mice (Swiss-Webster male mice; Simonsen Laboratories, Gilroy, Calif.) in several groups. The doses selected were based upon the NLDs of compounds of similar structures. After review of findings, higher or lower doses were administered and a NLD was determined. The results are tabulated in TABLE 3, below (NLD Acute Mice). The values for AmB and AME are provided for comparison

[3] = system: C. albicans; experiment: 5 day kidney bioburden evaluation in immunocompetent mice challenged with C. albicans; assay type: in vivo, Swiss-Webster mice; conditions: Candida albicans, ip, 120 h; intraperitoneally once daily for 5 days, immunocompetent mice, C. albicans; 50% of animals with 2 log10 reduction in kidney CFU; read-out: ED50 mice 5 day
Method: as §1, §2
Various polyene macrolide amide derivatives of the invention were evaluated for their protective effect when administered intraperitoneally once daily for 5 days to immunocompetent mice challenged with live C. albicans.
C. albicans was grown on Sabouraud dextrose agar (SDA) plates for 48 hr. Colonies were harvested and washed twice by centrifugation in phosphate-buffered saline (PBS). The washed pellets were resuspended in PBS and diluted to achieve the desired number of fungi per milliliter. A portion of the inoculum was plated on SDA plates to determine the colony-forming units (CFU) per milliliter.
Swiss-Webster mice (Simonsen Laboratories, Gilroy, Calif.) were administered by intravenous injection a single inoculum (0.2 mL) containing as estimated 2.0×10^5 CFU of C. albicans. The day of inoculation was designated as study day 0. Beginning three days after injection, mice were treated intraperitoneally with vehicle alone or formulated test compound once daily for 5 consecutive days.
The mice were observed daily from study day 0 through study day 10 (3 days after the last dose). Mice found dead or euthanized in extremis were removed from the study without further processing. Surviving mice were euthanized by inhalation of CO2 on study day 10 and both kidneys from each mouse were removed. Each pair of removed kidneys was homogenized in 3 mL of ice-cold PBS containing 10% glycerol. A portion of each homogenate was used to determine log10 CFU per kidney using SDA plates (48 hours of incubation at 30° C.). Kidney log10 CFU data were analyzed using a t-test. The criterion for a statistically significant response was set at p<0.01.
For comparison, the results for AmB and AME are also provided. Efficacy was defined for individual animals as a greater than 2 log10 reduction in kidney CFU relative to the mean vehicle control value.

[4] = Two week range-finding toxicity study in mice; assay type: in vivo, CD-1 mice; conditions: both sexes, CD-1, mouse, in vivo, iv
Method: as §1, §2
Various polyene macrolide amide derivatives of the invention were evaluated to characterize their potential toxicity when administered subchronically by intravenous injection.
CD-1® mice (Charles River Laboratories, Portage, Mich.) were acclimated to laboratory conditions for at least 5 days before the start of dosing. During the acclimation period, the general condition of the mice was evaluated, and those considered healthy were used. The mice were randomly assigned to treatment groups using a stratified body weight regimen. Each treatment group consisted of 3 male and 3 female mice. The mice were housed in a room with a controlled environment and provided rodent chow and water ad libitum.
On the first day of dosing, the mice were approximately 7 to 9 weeks old and weighed 22 to 30 g. Doses were administered by intravenous injection once daily on study days 1 to 5 and 8 to 12. Dosages were selected based upon data from efficacy and toxicology studies, and ranged from 1.25 to 30 mg/kg/day. Clinical observations were recorded 0.5 hr after dosing on days 1, 3, 5, 8, 10, 12 and 15, and on any day a change was observed. Body weights were recorded prior to dosing and on study days 8 and 12, and on study day 15 at the completion of the in-life phase of the study.
Animals that were found in a moribund/deteriorating clinical state were euthanized (animal designated killed in extremis) by inhalation of CO2. The day of death for any animal found dead or killed in extremis was recorded. Any animal that died prematurely was removed from the study without further processing.
One day after completion of dosing (study day 16), all surviving mice were euthanized by inhalation of CO2. Their kidneys were preserved for histopathologic examination. The maximum no-observed-adverse-effect level (NOAEL) was determined on the basis of clinical and histopathologic findings. The values for AmB and AME are provided for comparison.

SMILES | MIC [1] | NLD acute mice [2] | ED50 [3] | NOAEL at 2 week ([4]; NOAEL 2 week mice clinical) | NOAEL at 2 week ([4]; NOAEL 2 week mice histological)
CC1[C@H](C)OC(=O)C[C@H](O)C[C@H](O)CC[C@@H](O)[C@H](O)C[C@H](O)C[C@]2(O)C[C@H](O)C(C(=O)NCC(O)C(O)C(O)C(O)CO)C(C[C@@H](OC3O[C@H](C)[C@@H](O)[C@H](NC[C@@]4(O)OC[C@@H](O)[C@@H](O)[C@@H]4O)[C@@H]3O)/C=C/C=C/C=C/C=C/C=C/C=C/C=C/[C@H](C)[C@H]1O)O2 (stereo partly drawn) [Compound 103] | 1.1 µg/mL (≈ 0.88 µM) | 10 mg/kg | 15 mg/kg |  | 
CC1[C@H](C)OC(=O)C[C@H](O)C[C@H](O)CC[C@@H](O)[C@H](O)C[C@H](O)C[C@]2(O)C[C@H](O)C(C(=O)N3CCN(C)CC3)C(C[C@@H](OC3O[C@H](C)[C@@H](O)[C@H](NC[C@@]4(O)OC[C@@H](O)[C@@H](O)[C@@H]4O)[C@@H]3O)/C=C/C=C/C=C/C=C/C=C/C=C/C=C/[C@H](C)[C@H]1O)O2 (stereo partly drawn) [Compound 106] | 2 µg/mL (≈ 1.71 µM) | <15 mg/kg | 3 mg/kg | 3 mg/kg | 6 mg/kg
CC1[C@H](C)OC(=O)C[C@H](O)C[C@H](O)CC[C@@H](O)[C@H](O)C[C@H](O)C[C@]2(O)C[C@H](O)C(C(=O)NCCN3CCCCC3)C(C[C@@H](OC3O[C@H](C)[C@@H](O)[C@H](NC[C@@]4(O)OC[C@@H](O)[C@@H](O)[C@@H]4O)[C@@H]3O)/C=C/C=C/C=C/C=C/C=C/C=C/C=C/[C@H](C)[C@H]1O)O2 (stereo partly drawn) [Compound 107] | 2 µg/mL (≈ 1.67 µM) | >40 mg/kg | 28 mg/kg |  | 
CC1[C@H](C)OC(=O)C[C@H](O)C[C@H](O)CC[C@@H](O)[C@H](O)C[C@H](O)C[C@]2(O)C[C@H](O)C(C(=O)NCC(O)C(O)C(O)C(O)CO)C(C[C@@H](OC3O[C@H](C)[C@@H](O)[C@H](NC[C@@]4(O)OC[C@@H](O)[C@H](O)[C@@H]4O)[C@@H]3O)/C=C/C=C/C=C/C=C/C=C/C=C/C=C/[C@H](C)[C@H]1O)O2 (stereo partly drawn) [Compound 110] | 1 µg/mL (≈ 0.8 µM) | 10 mg/kg | 15 mg/kg |  | 
CC1[C@H](C)OC(=O)C[C@H](O)C[C@H](O)CC[C@@H](O)[C@H](O)C[C@H](O)C[C@]2(O)C[C@H](O)C(C(=O)NCCCN3CCOCC3)C(C[C@@H](OC3O[C@H](C)[C@@H](O)[C@H](NC[C@@]4(O)OC[C@@H](O)[C@H](O)[C@@H]4O)[C@@H]3O)/C=C/C=C/C=C/C=C/C=C/C=C/C=C/[C@H](C)[C@H]1O)O2 (stereo partly drawn) [Compound 111] | 2.7 µg/mL (≈ 2.23 µM) | 20 mg/kg | 7 mg/kg | < 7 mg/kg | 7 mg/kg
CC1[C@H](C)OC(=O)C[C@H](O)C[C@H](O)CC[C@@H](O)[C@H](O)C[C@H](O)C[C@]2(O)C[C@H](O)C(C(=O)N3CCN(C)CC3)C(C[C@@H](OC3O[C@H](C)[C@@H](O)[C@H](NC[C@@]4(O)OC[C@@H](O)[C@H](O)[C@@H]4O)[C@@H]3O)/C=C/C=C/C=C/C=C/C=C/C=C/C=C/[C@H](C)[C@H]1O)O2 (stereo partly drawn) [Compound 113] | 3.3 µg/mL (≈ 2.82 µM) | 7.5 mg/kg | 2 mg/kg | > 5 mg/kg | 1.25 mg/kg
CCN1CCN(C(=O)C2C3C[C@@H](OC4O[C@H](C)[C@@H](O)[C@H](NC[C@@]5(O)OC[C@@H](O)[C@H](O)[C@@H]5O)[C@@H]4O)/C=C/C=C/C=C/C=C/C=C/C=C/C=C/[C@H](C)[C@@H](O)C(C)[C@H](C)OC(=O)C[C@H](O)C[C@H](O)CC[C@@H](O)[C@H](O)C[C@H](O)C[C@](O)(C[C@@H]2O)O3)CC1 (stereo partly drawn) [Compound 133] |  | 15 mg/kg | 4.1 mg/kg | < 5 mg/kg | 
CC1[C@H](C)OC(=O)C[C@H](O)C[C@H](O)CC[C@@H](O)[C@H](O)C[C@H](O)C[C@]2(O)C[C@H](O)C(C(=O)N3CCN(Cc4ccccc4)CC3)C(C[C@@H](OC3O[C@H](C)[C@@H](O)[C@H](NC[C@@]4(O)OC[C@@H](O)[C@H](O)[C@@H]4O)[C@@H]3O)/C=C/C=C/C=C/C=C/C=C/C=C/C=C/[C@H](C)[C@H]1O)O2 (stereo partly drawn) [Compound 134] | 1 µg/mL (≈ 0.804 µM) | 30 mg/kg | > 30 mg/kg |  | 
CC1[C@H](C)OC(=O)C[C@H](O)C[C@H](O)CC[C@@H](O)[C@H](O)C[C@H](O)C[C@]2(O)C[C@H](O)C(C(=O)N3CCN(CCO)CC3)C(C[C@@H](OC3O[C@H](C)[C@@H](O)[C@H](NC[C@@]4(O)OC[C@@H](O)[C@H](O)[C@@H]4O)[C@@H]3O)/C=C/C=C/C=C/C=C/C=C/C=C/C=C/[C@H](C)[C@H]1O)O2 (stereo partly drawn) [Compound 135] | 6.3 µg/mL (≈ 5.26 µM) | 10 mg/kg | 1.6 mg/kg | 1.25 mg/kg | > 5 mg/kg
CC1[C@H](C)OC(=O)C[C@H](O)C[C@H](O)CC[C@@H](O)[C@H](O)C[C@H](O)C[C@]2(O)C[C@H](O)C(C(=O)N3CCN(c4ccccc4)CC3)C(C[C@@H](OC3O[C@H](C)[C@@H](O)[C@H](NC[C@@]4(O)OC[C@@H](O)[C@H](O)[C@@H]4O)[C@@H]3O)/C=C/C=C/C=C/C=C/C=C/C=C/C=C/[C@H](C)[C@H]1O)O2 (stereo partly drawn) [Compound 136] | 0.4 µg/mL (≈ 0.325 µM) | >15 mg/kg | 40.2 mg/kg |  | 
CC1[C@H](C)OC(=O)C[C@H](O)C[C@H](O)CC[C@@H](O)[C@H](O)C[C@H](O)C[C@]2(O)C[C@H](O)C(C(=O)N3CCN(C)CC3)C(C[C@@H](OC3O[C@H](C)[C@@H](O)[C@H](NC[C@@]4(O)OC[C@@H](O)[C@@H](OC5O[C@H](CO)[C@H](O)[C@H](O)[C@H]5O)[C@@H]4O)[C@@H]3O)/C=C/C=C/C=C/C=C/C=C/C=C/C=C/[C@H](C)[C@H]1O)O2 (stereo partly drawn) [Compound 146] | 2 µg/mL (≈ 1.5 µM) | <7.5 mg/kg |  |  | 
CC1[C@H](C)OC(=O)C[C@H](O)C[C@H](O)CC[C@@H](O)[C@H](O)C[C@H](O)C[C@]2(O)C[C@H](O)C(C(=O)N3CCN(CCO)CC3)C(C[C@@H](OC3O[C@H](C)[C@@H](O)[C@H](NC[C@@]4(O)OC[C@@H](O)[C@@H](OC5O[C@H](CO)[C@H](O)[C@H](O)[C@H]5O)[C@@H]4O)[C@@H]3O)/C=C/C=C/C=C/C=C/C=C/C=C/C=C/[C@H](C)[C@H]1O)O2 (stereo partly drawn) [Compound 147] | 2 µg/mL (≈ 1.47 µM) | <7.5 mg/kg |  |  | 
